How the values were obtained:
Experiment in all cases: AUC of viability dose-response curve (% viability x log10 dose units); higher = less sensitive
Settings in all cases: 48 h
NOMO1 = test system: NOMO1
Outline: (§1)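 In 1536-well plates, leukemia cells adapted to each medium (500 or 1000 cells/well) were exposed for 48 h at 37°C to library compounds in DMSO across 11 threefold doses, 47 μM down to 0.79 nM. Viability was read by CellTiter-Glo One luminescence and normalised per plate to DMSO and cell-free wells. A four-parameter log-logistic fit over log10 doses was integrated by trapezoidal rule. This yielded the area under the curve, with over-full-viability curves scaled and quality-control failures dropped.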

P12-Ichikawa = test system: P12-Ichikawa
Outline: as §1

SEM cells = test system: SEM cells
Outline: as §1

[1] = RPMI 5 mM glucose + 10% dialyzed FBS

Row | SMILES | AUC of viability dose-response curve (NOMO1; HPLM + 10% dialyzed FBS) | AUC of viability dose-response curve (NOMO1; RPMI 5 mM glucose + 10% FBS) | AUC of viability dose-response curve (NOMO1; [1]) | AUC of viability dose-response curve (P12-Ichikawa; HPLM + 10% dialyzed FBS) | AUC of viability dose-response curve (P12-Ichikawa; RPMI 5 mM glucose + 10% FBS) | AUC of viability dose-response curve (P12-Ichikawa; [1]) | AUC of viability dose-response curve (SEM cells; HPLM + 10% dialyzed FBS) | AUC of viability dose-response curve (SEM cells; RPMI 5 mM glucose + 10% FBS) | AUC of viability dose-response curve (SEM cells; [1])
1 | C[C@@]12C[C@@]3(O)O[C@@H](O1)[C@]1(COC(=O)c4ccccc4)[C@H]3C[C@@]12O[C@@H]1O[C@H](CO)[C@@H](O)[C@H](O)[C@H]1O | 436 | 463 | 463 | 469 | 467 | 469 | 456 | 454 | 463
2 | CCOC(=O)\C1=C(/C)N\C2=C(C1C3=CC=C(C=C3)C4=CC=CC=C4)\C(=O)CC(C)(C)C2 (stereo not given) | 438 | 465 | 447 | 457 | 457 | 444 | 461 | 451 | 450
3 | O=C(NC[C@H](O)CO)c1ccncc1Nc1ccc(I)cc1F | 328 | 290 | 309 | 467 | 437 | 464 | 426 | 376 | 378
4 | N[C@H](CSC(c1ccccc1)(c1ccccc1)c1ccccc1)C(=O)O | 470 | 466 | 465 | 472 | 437 | 470 |  |  | 
5 | Nc1ncnc2c1c(-c1cnc3[nH]ccc3c1)nn2C1CCCC1 | 364 | 388 | 397 | 379 | 343 | 326 | 356 | 306 | 360
6 | CN1CCCN=C1/C=C/c1cccs1.O=C(O)c1cc2ccccc2c(Cc2c(O)c(C(=O)O)cc3ccccc23)c1O | 417 | 446 | 436 | 413 | 462 | 462 | 467 | 442 | 453
7 | C[N]1C=C(C2=C1C=CC=C2)\C3=C(\C(=O)NC3=O)C4=C5CC(CN)CC[N]5C6=C4C=CC=C6 (stereo not given) | 452 | 443 | 460 | 456 | 440 | 443 | 395 | 399 | 420
8 | COc1ccc(-c2ccc3c(N4CCOC[C@@H]4C)nc(N4CCOC[C@@H]4C)nc3n2)cc1CO | 293 | 359 | 337 | 353 | 296 | 311 | 310 | 310 | 316
9 | CC/1=C(/N2[C@H](SC1)[C@H](NC(=O)[C@H](N)\C3=C\C\C=C/C3)C2=O)C(O)=O | 446 | 454 | 461 | 471 | 441 | 440 | 429 | 470 | 448
10 | O=C(Nc1ccccc1-c1cn2c(CN3CCNCC3)csc2n1)c1cnc2ccccc2n1 | 381 | 350 | 391 | 388 | 369 | 361 | 364 | 366 | 310
11 | CC1(C)O[C@@H]2C[C@H]3[C@@H]4CCC5=CC(=O)C=C[C@]5(C)[C@H]4[C@@H](O)C[C@]3(C)[C@]2(C(=O)CO)O1 | 474 | 445 | 454 | 391 | 357 | 331 | 313 | 353 | 318
12 | C[C@@H]\1CC(=O)N\N=C1C2=CC=C(NN=C(C#N)C#N)C=C2 | 426 | 410 | 413 | 424 | 417 | 392 | 397 | 368 | 393
13 | CCOC(=O)C/1=C(O)/C(=O)N(CC2=CC=CC=C2)C1 | 459 | 446 | 462 | 462 | 466 | 468 | 463 | 469 | 468
14 | Cc1cn([C@@H]2O[C@H](CO)[C@@H](O)[C@@H]2F)c(=O)[nH]c1=O | 456 | 460 | 458 |  |  |  | 467 | 437 | 469
15 | CSCC[C@@H](NC(=O)[C@@H](Cc1ccccc1)NC(=O)CNC(=O)CNC(=O)[C@@H](N)Cc1ccc(O)cc1)C(=O)O |  |  |  |  |  |  | 406 | 389 | 409
16 | C[S+](=O)([O-])N1CCc2c(-c3cnc(N)nc3)nc(N3CCOCC3)nc21 | 418 | 442 | 404 | 457 | 431 | 440 |  |  | 
17 | OC1=CC2=C(C(=C1)O)C(=O)\C=C(/O2)C3=CC=CC=C3 | 450 | 453 | 456 | 441 | 443 | 446 | 429 | 410 | 423
18 | C=CC(=O)N1CCC[C@@H](n2nc(-c3ccc(Oc4ccccc4)cc3)c3c(N)ncnc32)C1 | 462 | 446 | 467 | 414 | 458 | 452 | 456 | 443 | 424
19 | CC(C)C[C@H](NC(=O)[C@H](CCc1ccccc1)NC(=O)CN1CCOCC1)C(=O)N[C@@H](Cc1ccccc1)C(=O)N[C@@H](CC(C)C)C(=O)[C@@]1(C)CO1 | 177 | 152 | 169 | 162 | 139 | 140 |  |  | 
20 | O=C(Nc1cc2cc[nH]c2cn1)c1ccccc1 | 366 | 385 | 401 | 360 | 414 | 386 | 359 | 335 | 364
21 | Cc1ccc([S+](=O)([O-])N[C@@H](Cc2ccccc2)C(=O)CCl)cc1 | 463 | 434 | 450 |  |  |  | 427 | 429 | 420
22 | S=C1N\C=N/C2=C1[NH]C=N2 | 425 | 446 | 360 | 404 | 377 | 343 | 445 | 409 | 360
23 | COC(=O)[C@@H]1[C@H]2C[C@H]3c4[nH]c5ccccc5c4CCN3C[C@@H]2CC[C@@H]1O | 356 | 325 | 350 | 373 | 378 | 402 | 440 | 441 | 451
24 | C=C(C)[C@H]1Cc2c(ccc3c2O[C@@H]2COc4cc(OC)c(OC)cc4[C@@H]2C3=O)O1 | 389 | 399 | 413 | 376 | 335 | 366 | 370 | 337 | 379

Reference: the supplement of paper PMC11451515
